From PubChem BioAssay (NCI)
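The compound was tested at five concentrations on cells cultured in 96-well plates, with a 48-hour exposure period. GI50 marks 50% less growth. TGI marks complete inhibition of growth.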

Legend:
Assay in all cases: DTP human tumour cell line panel, 48 h
MDA-MB-231 breast = tested on: MDA-MB-231 breast
MDA-N = tested on: MDA-N
PC-3 prostate = tested on: PC-3 prostate
NCI-H226 lung = tested on: NCI-H226 lung
RPMI-8226 leukemia = tested on: RPMI-8226 leukemia
SF-539 CNS = tested on: SF-539 CNS
HL-60(TB) leukemia = tested on: HL-60(TB) leukemia
SK-OV-3 ovarian = tested on: SK-OV-3 ovarian
HS 578T breast = tested on: HS 578T breast
M14 melanoma = tested on: M14 melanoma

Compound	TGI (MDA-MB-231 breast) [µM]	TGI (MDA-N) [µM]	TGI (PC-3 prostate) [µM]	TGI (NCI-H226 lung) [µM]	TGI (RPMI-8226 leukemia) [µM]	TGI (SF-539 CNS) [µM]	TGI (HL-60(TB) leukemia) [µM]	TGI (SK-OV-3 ovarian) [µM]	TGI (HS 578T breast) [µM]	TGI (M14 melanoma) [µM]	GI50 (MDA-MB-231 breast) [µM]	GI50 (SF-539 CNS) [µM]	GI50 (HL-60(TB) leukemia) [µM]	GI50 (PC-3 prostate) [µM]	GI50 (NCI-H226 lung) [µM]	GI50 (HS 578T breast) [µM]	GI50 (M14 melanoma) [µM]	GI50 (SK-OV-3 ovarian) [µM]
CCOC(=O)n1cncc1CC(NC(=O)Cc1c(C(=O)C=C(C)C)[nH]c2ccccc12)C(=O)OC (centres undefined)	36.1	84.3	33.6	41.3	> 100	46.2	44	35.3	65.9	33.3	–	–	–	–	–	–	–	–
COc1cccc(-c2nc3c(C(=O)NCCN(C)C)cccc3[nH]2)c1	–	–	–	35.7	46.3	41.4	41.2	69.5	–	–	–	–	–	–	–	–	–	–
O=S(=O)(O)c1c(N=Nc2c(O)ccc3ccccc23)ccc2ccccc12	> 100	> 100	> 100	> 100	> 100	–	–	> 100	> 100	> 100	–	–	–	–	–	–	–	–
Nc1nc(SCc2ccccc2)c2ncn(Cc3ccccc3)c2n1	> 100	> 100	> 100	> 100	> 100	> 100	> 100	> 100	> 100	> 100	–	–	–	–	–	–	–	–
C=C1C(=O)OC2C1C(OC(=O)/C(C)=C/C)CC1(C)C(=O)CCC(=C)C21 (centres undefined)	38.4	18.1	22.9	55.9	7.97	32.1	–	51.7	78	23.3	–	–	–	–	–	–	–	–
CC1(C)COC(/C=C/C2=NC(C)(C)CO2)=N1	44.2	48.7	51.7	59.4	26.2	51.7	49.4	> 100	23.1	31.4	–	–	–	–	–	–	–	–
CN(C)Cc1ccc(C(=O)Nc2ccc3ncnc(Nc4ccc(Oc5cccc(F)c5)c(Cl)c4)c3c2)cc1	3.12	–	–	–	–	3.04	3.7	–	–	–	1.65	1.6	1.91	–	–	–	–	–
COC(=O)C1=CC[C@@H]2C(C(=O)O)=CO[C@@H](OC3OC(CO)C(O)C(O)C3O)[C@H]12 (some centres undefined)	–	–	–	> 300	> 300	> 300	> 300	> 300	–	–	–	–	–	–	–	–	–	–
c1ccc2sc(C3(N4CCCCC4)CCCC3)cc2c1	–	35.1	–	13.5	10.4	31.7	19.1	31.4	33.4	33.1	–	–	–	–	–	–	–	–
COc1cc(-c2coc3c(OC)c(OC4OC(CO)C(O)C(O)C4O)c(OC)cc3c2=O)cc(OC)c1C (centres undefined)	> 54.5	46.7	> 54.3	68.1	> 100	> 29	> 100	23.4	15.4	23.2	–	–	–	–	–	–	–	–
CC(=O)OCC1OC(O[C@@H]2c3c(O)c4c(c(O)c3C3=C(NN(c5ccc([N+](=O)[O-])cc5[N+](=O)[O-])[Se]3=O)[C@@]2(C)O)C(=O)c2ccccc2C4=O)C(OC(C)=O)C(OC(C)=O)C1OC(C)=O (some centres undefined)	1.48	0.753	1.02	0.947	0.372	–	–	1.52	0.927	1.6	–	–	–	–	–	–	–	–
S=C(Nc1ccc(Cl)cc1)Nc1ccc(Cl)cc1 (tested in a mixture with another compound)	3.68	–	6.59	7.76	–	4.84	4.98	–	> 100	5.39	1.86	2	1.98	1.71	2.33	2.37	2.03	–
[C-]#[O+].[C-]#[O+].[Ir].[O-]c1cccc2cccnc12	–	–	–	> 100	–	> 100	–	> 100	–	–	–	> 100	–	–	> 100	–	–	> 100
